“And” between values parts separate entries of the source, which are not always exact repeats. Identical values can stand only once. Toxic doses and inconclusive results are not listed. No stated cut-off is given here; in the data, active means T/C of 150% or more; inactive means T/C below 125%. Square brackets hold non-standard residues; d marks the D form. Peptide text beside a SMILES is read from it. * marks the point of attachment. ξ: configuration not given here. ξW = NC(Cc1c[nH]c2ccccc12)C(=O)O; Cbz = O=C(OCc1ccccc1)*
Test system: L1210 leukemia ip in BDF1 mice, survival T/C
Assay: NCI In Vivo Anticancer Drug Screen. Data for tumor model L1210 Leukemia (intraperitoneal) in B6D2F1 (BDF1) mice
Conditions: endpoint: mean survival time, higher = longer survival
Summary of the method: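 Antitumor effect is assessed in tumor-bearing animals. Survival in the compound arm is compared with a vehicle-dosed control arm and expressed as their quotient.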

[1] = dose: 100.0 mg/kg/injection, schedule: Q01DX001 (ip), vehicle: other
[2] = dose: 200.0 mg/kg/injection, schedule: Q01DX001 (ip), vehicle: other
[3] = dose: 400.0 mg/kg/injection, schedule: Q01DX001 (ip), vehicle: other
[4] = dose: 100.0 mg/kg/injection, schedule: Q04DX003 (ip), vehicle: saline
[5] = dose: 200.0 mg/kg/injection, schedule: Q04DX003 (ip), vehicle: saline
[6] = dose: 400.0 mg/kg/injection, schedule: Q04DX003 (ip), vehicle: saline
[7] = dose: 100.0 mg/kg/injection, schedule: Q01DX009 (ip), vehicle: saline
[8] = dose: 200.0 mg/kg/injection, schedule: Q01DX009 (ip), vehicle: saline
[9] = dose: 400.0 mg/kg/injection, schedule: Q01DX009 (ip), vehicle: saline
[10] = dose: 100.0 mg/kg/injection, schedule: Q04DX003 (ip), vehicle: saline with Tween-80
[11] = dose: 200.0 mg/kg/injection, schedule: Q04DX003 (ip), vehicle: saline with Tween-80
[12] = dose: 400.0 mg/kg/injection, schedule: Q04DX003 (ip), vehicle: saline with Tween-80
[13] = dose: 100.0 mg/kg/injection, schedule: Q04DX003 (ip), vehicle: Klucel (hydroxypropylcellulose) (HPC)
[14] = dose: 200.0 mg/kg/injection, schedule: Q04DX003 (ip), vehicle: Klucel (hydroxypropylcellulose) (HPC)
[15] = dose: 400.0 mg/kg/injection, schedule: Q04DX003 (ip), vehicle: Klucel (hydroxypropylcellulose) (HPC)
[16] = dose: 100.0 mg/kg/injection, schedule: Q01DX009 (ip), vehicle: Klucel (hydroxypropylcellulose) (HPC)
[17] = dose: 200.0 mg/kg/injection, schedule: Q01DX009 (ip), vehicle: Klucel (hydroxypropylcellulose) (HPC)
[18] = dose: 400.0 mg/kg/injection, schedule: Q01DX009 (ip), vehicle: Klucel (hydroxypropylcellulose) (HPC)
[19] = dose: 100.0 mg/kg/injection, schedule: Q01DX001 (ip), vehicle: Klucel (hydroxypropylcellulose) (HPC)
[20] = dose: 200.0 mg/kg/injection, schedule: Q01DX001 (ip), vehicle: Klucel (hydroxypropylcellulose) (HPC)
[21] = dose: 400.0 mg/kg/injection, schedule: Q01DX001 (ip), vehicle: Klucel (hydroxypropylcellulose) (HPC)
[22] = dose: 50.0 mg/kg/injection, schedule: Q01DX009 (ip), vehicle: saline with Tween-80

Measured: T/C

CCSc1nc(/C=N/NS(=O)(=O)c2ccccc2)c(F)c(=O)[nH]1
inactive: [1] 105 % of control | [2] 101 % of control | [3] 96 % of control

Oc1ccc(C=NCCN=Cc2ccc(O)cc2)cc1
inactive: [1] 103 % of control | [2] 103 % of control | [3] 103 % of control

O=C(Nc1ccccc1)c1ccc(N(CO)CO)cc1
inactive: dose: 100.0 mg/kg/injection, schedule: Q01DX001 (ip), vehicle: saline 98 % of control | [4] 94 % of control | dose: 200.0 mg/kg/injection, schedule: Q01DX001 (ip), vehicle: saline 101 % of control | [5] 120 % of control | dose: 400.0 mg/kg/injection, schedule: Q01DX001 (ip), vehicle: saline 93 % of control | [6] 96 % of control

CNC(=O)NCCOC(=O)NC
inactive: [7] 94 % of control | [4] 96 % of control | [8] 98 % of control | [5] 101 % of control | [9] 107 % of control | [6] 101 % of control

COC(=O)C(Cc1c[nH]c2ccccc12)NC(=O)CNC(=O)CNC(=O)OCc1ccccc1 (stereo not drawn) (Cbz-Gly-Gly-[ξW]-OMe)
inactive: [10] 105 % of control | [11] 101 % of control | [12] 100 % of control

c1ccc(C2=NCCN=C2c2ccccc2)cc1
inactive: [13] 97 % of control | [14] 97 % of control | [15] 93 % of control

O=c1[nH]/c(=C\c2ccc3c(c2)OCO3)c(=O)[nH]/c1=C\c1ccc2c(c1)OCO2
inactive: [16] 94 % of control | [13] 93 % of control | [17] 86 % of control | [14] 96 % of control | [18] 89 % of control | [15] 98 % of control

O=C(CCl)NC1CCC(CC2CCCCC2)CC1 (centres undefined)
inactive: [13] 99 % of control | [14] 93 % of control | [15] 89 % of control

CCOC(=O)Cc1ccc(CC(=O)OCC)cc1
inactive: dose: 75.0 mg/kg/injection, schedule: Q04DX003 (ip), vehicle: saline 100 % of control | dose: 150.0 mg/kg/injection, schedule: Q04DX003 (ip), vehicle: saline 105 % of control | dose: 300.0 mg/kg/injection, schedule: Q04DX003 (ip), vehicle: saline 96 % of control

CC(C)C[CH2][Pb]([Cl])([CH2]CC(C)C)[CH2]CC(C)C
inactive: dose: 0.03 mg/kg/injection, schedule: Q04DX002 (ip), vehicle: saline 96 % of control | dose: 0.05 mg/kg/injection, schedule: Q04DX002 (ip), vehicle: saline 102 % of control | dose: 0.1 mg/kg/injection, schedule: Q04DX002 (ip), vehicle: saline 96 % of control | dose: 0.2 mg/kg/injection, schedule: Q04DX002 (ip), vehicle: other 111 % of control | dose: 0.2 mg/kg/injection, schedule: Q04DX003 (ip), vehicle: other 101 % of control | dose: 0.78 mg/kg/injection, schedule: Q04DX003 (ip), vehicle: other 95 % of control

CCOP(=O)(OCC)N(C(=O)O)C1CCCCC1
inactive: dose: 50.0 mg/kg/injection, schedule: Q01DX009 (ip), vehicle: saline 96 % of control | [7] 109 % of control | [8] 108 % of control | [9] 105 % of control

CCCCCCCCCCCCCCCCCC/C(CC)=N/Nc1ccc([N+](=O)[O-])cc1[N+](=O)[O-]
inactive: [19] 101 % of control | [20] 103 % of control | [21] 97 % of control

O=C(Nc1ccc(Cl)c(Cl)c1)Nc1c(Oc2ccc(Cl)c(Cl)c2)ccc(Cl)c1S(=O)(=O)O
inactive: dose: 6.25 mg/kg/injection, schedule: Q01DX009 (ip), vehicle: saline 94 % of control | dose: 12.5 mg/kg/injection, schedule: Q01DX009 (ip), vehicle: saline 93 % of control | dose: 25.0 mg/kg/injection, schedule: Q01DX009 (ip), vehicle: saline 96 % of control

Cc1ccc(Cl)cc1S
inactive: dose: 16.0 mg/kg/injection, schedule: Q01DX015 (ip), vehicle: saline 96 % of control | dose: 32.0 mg/kg/injection, schedule: Q01DX015 (ip), vehicle: saline 94 % of control | dose: 64.0 mg/kg/injection, schedule: Q01DX015 (ip), vehicle: saline 100 % of control | dose: 100.0 mg/kg/injection, schedule: Q01DX009 (ip), vehicle: water 100 % of control | dose: 100.0 mg/kg/injection, schedule: Q04DX003 (ip), vehicle: water 94 % of control | dose: 128.0 mg/kg/injection, schedule: Q01DX015 (ip), vehicle: saline 88 % of control

CN(C)C(=S)Oc1ccccc1[N+](=O)[O-]
inactive: [10] 100 % of control | [11] 103 % of control | [12] 114 % of control

COc1cc(OC)c(N=CN(C)C)cc1Cl
inactive: dose: 25.0 mg/kg/injection, schedule: Q01DX009 (ip), vehicle: Klucel (hydroxypropylcellulose) (HPC) 104 % of control | dose: 50.0 mg/kg/injection, schedule: Q01DX009 (ip), vehicle: Klucel (hydroxypropylcellulose) (HPC) 102 % of control | dose: 75.0 mg/kg/injection, schedule: Q01DX009 (ip), vehicle: Klucel (hydroxypropylcellulose) (HPC) 99 % of control and 105 % of control

C=CCOCC(O)CN(CCCC)CCCC (centres undefined)
inactive: dose: 25.0 mg/kg/injection, schedule: Q01DX009 (ip), vehicle: saline with Tween-80 95 % of control | [22] 97 % of control

CS(=O)(=O)Oc1cccc(C2CS(=O)(=O)c3ccccc3N2)c1 (centres undefined)
inactive: [19] 101 % of control | [16] 104 % of control | [13] 97 % of control | [20] 106 % of control | [17] 101 % of control | [14] 97 % of control | [21] 103 % of control | [18] 101 % of control | [15] 94 % of control

COC(=O)c1cc(C)c(C(=O)OC)cc1C
inactive: dose: 100.0 mg/kg/injection, schedule: Q01DX009 (ip), vehicle: saline sonified 97 % of control | dose: 200.0 mg/kg/injection, schedule: Q01DX009 (ip), vehicle: saline sonified 91 % of control | dose: 400.0 mg/kg/injection, schedule: Q01DX009 (ip), vehicle: saline sonified 88 % of control

CC[P+](CCCCCCCCC[P+](CC)(Cc1ccccc1)c1ccccc1)(Cc1ccccc1)c1ccccc1 (centres undefined)
inactive: dose: 5.0 mg/kg/injection, schedule: Q01DX001 (ip), vehicle: saline 105 % of control

CCC(=O)c1ccc(-c2ccccc2)cc1
inactive: dose: 175.0 mg/kg/injection, schedule: Q04DX002 (ip), vehicle: Klucel (hydroxypropylcellulose) (HPC) 102 % of control | dose: 350.0 mg/kg/injection, schedule: Q04DX002 (ip), vehicle: Klucel (hydroxypropylcellulose) (HPC) 98 % of control

CC12CCCC=C1CC(C(C)(C)O)CC2 (centres undefined)
inactive: [22] 96 % of control | dose: 100.0 mg/kg/injection, schedule: Q01DX009 (ip), vehicle: saline with Tween-80 100 % of control | dose: 200.0 mg/kg/injection, schedule: Q01DX009 (ip), vehicle: saline with Tween-80 100 % of control

Reference: PubChem BioAssay AID248 (DTP/NCI, 2004)
